Measurements published in US5108916A, “Process for stereoselectively hydrolyzing, transesterifying or esterifying with immobilized isozyme of lipase from Candida rugosa” (priority 1989, dated 1992).
“And” between values parts separate entries of the source, which are not always exact repeats. Equal values may be shown once. Read-outs that look alike come from different tables or passages of the source.

Legend:
[1] = Conversion of ketoprofen esters in organic solvent/oleic acid media; format: biochemical
Description: To optimize the organic solvent used in the presence of oleic acid a variety of organic solvents were used, along with a variety of ketoprofen esters. In this experiment, 50 mg of ketoprofen esters were weighed into flasks, along with 1 ml of oleic acid and 9 ml of an organic solvent. The flasks were capped and incubated at 35° C., 250 rpm, for 10-26 hours before stopping the reaction by first adding 4 ml CHCl3 to solubilize the substrates and products, then filtering through a 0.2 um Gelman Nylaflo filter. Samples were then diluted in methanol and analyzed by HPLC as in Example 18. The experiment was also performed using 200 ul of oleic acid and 10ml buffer, which was acidified, extracted with CHCl3 and analyzed by HPLC as above.
One ml of oleic acid was added, as was 9 ml of buffer (100 mM (NH4)H2 PO4, pH 5.5) or organic solvent. Flasks were placed into a 35° C. incubator and shaken at 250 rpm for 13 hours. Reaction was stopped by adding 5 ml CHCl3 to solubilize the organic material and filtering the solutions using 0.2 um Gelman Nylaflo membranes to remove the enzyme. Samples were analyzed on an ODS-3 RAC column using CH3 OH:10 mM (NH4)H2PO4 (60:40) as eluant, flow rate 4 ml/min, and detection at 254 nm. %ee was determined by the resolution of diastereomeric amides on the above HPLC system, as per Example 18.

CSC-2 = experiment: Effect of additives and solvents on hydrolysis of ketoprofen monoglyceride by CSC-2; format: biochemical, Candida rugosa
Description: Hydrolysis of ketoprofen-monoglyceride (50mg) was carried out in various DMF-100mM (NH4)H2 PO4 buffer (pH 5.5) mixtures. In each flask a solution of ketoprofen monoglyceride (50mg) in DMF (200ul) was added. DMF was added followed by 100mM (NH4)H2 PO4 buffer. […] After 22 hours, 2%, 5%, and 10% DMF samples were acidified, extracted with CHCl3 (2×10ml) and analyzed. The other samples were analyzed directly as in Example 18. The acid produced decreases with increasing amount of DMF.
Small amounts of DMF were added to the reaction mixture to increase the solubility of KPG. In all cases 100mM ammonium phosphate buffer (pH 5.5) was used and 2% (v/v) detergents were added and the total volume was 10ml.
The buffer reaction (entry #2 in the table) contained enzyme in buffer (2 ml) and the buffer only (entry #1 in the table) reaction contained no enzyme.
The presence of a surfactant like Tween increases the solubility o lipophilic compounds in water. […] Tween 80 was added to make 1% and 2% solution (v/v). Bovine serum albumin (BSA) (10mg) was added to each of two flasks. A solution of 50mg of ketoprofen monoglyceride in 200ul DMF was added to each. After 20 hours at 250 rpm and 35° C. the reaction mixtures were acidified, extracted and analyzed by the usual HPLC procedure as in Example 18.
Various surfactants were used at 2% of the reaction volume to determine their effect on the enzymatic reaction involving the conversion of ketoprofen monoglyceride (KPG) to ketoprofen (KP). […] Flasks were covered with parafilm and incubated in a 35° C. water bath at 250 rpm, typically overnight. Reactions were stopped by acidification, extracted with CHCl3 (2×10 ml). The %acid and %ee were determined by the method of Example 18. It is to be noted that Hydrophile-Lipophile Balance (HLB) values have no apparent bearing on the ability of the surfactant to enhance the conversion of KPG to KP.
75 mg of KPG (in the absence of DMF) was individually weighed into 50 ml Erlenmeyer flasks. […] 9 ml of 100 mM (NH4)H2 PO4, pH 5.5 buffer was added, and the flasks were placed into a 35° C., 250 rpm water bath incubator for 20 hours. The reactions were acidified, extracted with CHCl3 and examined by HPLC as in Example 18. The %ee was determined as per Example 18.
Various amounts of oleic acid or its esters were added, and the reactions stopped at the times indicated, acidified, extracted with CHCl3 and analyzed as in Example 18.
An experiment was performed as in Example 41, but using 100, 200 and 500 ul of olive oil to determine if it would enhance the rate of conversion of KPG to KP. […] After 20 hours, all reactions were acidified, extracted with CHCl3 and analyzed by HPLC as in Example 18. The results are given below:
50 mg of KPG was weighed into Erlenmeyer flasks. […] Flasks were incubated at 35° C., 250 rpm for 23 hours. The reactions were stopped by acidification, extracted with CHCl3, and analyzed by HPLC as in Example 18. The additive is listed along with its percentage composition of glycerides of oleic acid.
To determine the problems associated with having oleic acid or oleate. esters in the reaction media, the following experiment was performed. […] Flasks were placed in a 35° C. incubator at 250 rpm, and the reactions were sampled by taking 200 ul aliquots at various time points. These aliquots were analyzed by HPLC (ODS-3 RAC column, CH3 OH: 10 mM (NH4)H2 PO4 (60:40) eluant, 4 ml/min, 254 nm detection) to determine the course of reaction. When approximately 40% acid was produced, the reactions were stopped by placing the flasks in the -70° C. freezer. Two extraction procedures were utilized to determine the best method of isolating S-Ketoprofen free of oleic acid. The first (listed as Extraction Procedure I in the following table) involved first making the solution basic (pH 10) with NaOH, then extracting with hexane, then CHCl3.

Lipase MY = experiment: Two phase Lipase MY hydrolysis of HPPA-Me in organic solvent/water mixtures; format: biochemical, Candida rugosa
Description: A. 75% organic solvent/25% aqueous buffer--Fifty milligrams of R,S-HPPA-Me was combined in 10 ml Scintillation vial with 7.5 ml of organic solvent, 2.5 ml of 50 mM phosphate buffer pH 6.0, and 5 mg Lipase MY. The reactions were placed on shaker and shaken for a period of 0-43 hours with samples being taken at various times.
B. 25% organic solvent/75% aqueous buffer--Fifty milligrams of R,S-HPPA-Me was combined, in 10 ml Scintillation vial with 2.5 ml of organic solvent, 7.5 ml 50mM phosphate buffer (pH 6.8), and 5 mg Lipase MY. The reactions were shaken for a period of 0-143 hours with samples being taken at various time points.
The data in Table 2 represents the % conversion and % R-HPPA produced using the indicated organic solvents in a two-phase system wherein 75% […] of the total vehicle (solvent) was water and the balance (25%) was organic solvents.

[2] = KPG 50 mg, 100 mg CSC-2 on silica (279-SD-1), 9 ml solvent (or buffer)/1 ml oleic acid, 13 hours
[3] = solvent/buffer 1:1 two phase, 26 hours
[4] = solvent/buffer 1:1 two phase, 26 hours, buffer = 100
[5] = Buffer 10 ml, OA 200 ul, enzyme not named in Example 55
[6] = Hexane 9 ml, OA 1 ml, 10-26 hours
[7] = Hexane 9 ml, OA 1 ml, * stopped at 10 Hr
[8] = Isooctane 9 ml, OA 1 ml, * stopped at 10 Hr

**Q.** For `C1=CCCCC1` [Cyclohexene], which “% Acid” value ([1]; KPEG 50 mg, as E212) is on record?
**A.** 3%

**Q.** What about the “% ee S-acid” value ([1]; KPEG, as E212) of the same molecule?
**A.** 52%

**Q.** What about the “% Acid” value [1, 2] of the same molecule?
**A.** 12%

**Q.** And the “% ee S-acid” value ([1]; KPG, as E212)?
**A.** 94%

**Q.** And the “EE of S-acid” value (CSC-2; [3])?
**A.** 89%

**Q.** And the “Relative Rate” value (CSC-2; [4])?
**A.** 146

**Q.** What does the source list for `BrCCBr` [1,2-dibromoethane]?
**A.** % R (Lipase MY; solvent 25%, 43 hr): 73%; Conversion (ester/acid) (Lipase MY; solvent 25%, 43 hr): 33%; % R (Lipase MY; solvent 75%, 43 hr): 57%; Conversion (ester/acid) (Lipase MY; solvent 75%, 43 hr): 23%

**Q.** With `ClCC(Cl)Cl` [1,1,2 trichloroethane] as the molecule, how does the “% R” value (Lipase MY; solvent 25%, 43 hr) read?
**A.** 79%

**Q.** And the “Conversion (ester/acid)” value (Lipase MY; solvent 25%, 43 hr)?
**A.** 29%

**Q.** What about the “Relative Rate” value (CSC-2; solvent/buffer 1:1 two phase, 16 hour reactions) of the same molecule?
**A.** 0

**Q.** With `CC(C(=O)OCC(O)CO)c1cccc(C(=O)c2ccccc2)c1` (centres unmarked) [Monoglyceride Ester, ketoprofen monoglyceride] as the molecule, how does the “% ee” value ([1]; Buffer 10 ml, OA 200 ul) read?
**A.** 96%

**Q.** And the “% Acid” value [1, 5]?
**A.** 26%

**Q.** What about the “% Acid” value ([1]; CHCl3 9 ml, OA 1 ml) of the same molecule?
**A.** 0%

**Q.** And the “% Acid” value [1, 6]?
**A.** 47%

**Q.** And the “% ee” value [1, 7]?
**A.** 97%

**Q.** What about the “% Acid” value ([1]; Isooctane 9 ml, OA 1 ml) of the same molecule?
**A.** 31%

**Q.** And the “% ee” value [1, 8]?
**A.** 96%

**Q.** What about the “% Acid” value ([1]; Toluene 9 ml, OA 1 ml) of the same molecule?
**A.** 0%

**Q.** For `C1CCCCC1` [cyclohexane], which “% Acid” value ([1]; KPEG 50 mg, as E212) is on record?
**A.** 29%

**Q.** What about the “% ee S-acid” value ([1]; KPEG, as E212) of the same molecule?
**A.** 83%

**Q.** And the “% Acid” value [1, 2]?
**A.** 38%

**Q.** What about the “% ee S-acid” value ([1]; KPG, as E212) of the same molecule?
**A.** 98%

**Q.** What about the “% R” value (Lipase MY; solvent 25%, 2.7 hr) of the same molecule?
**A.** 100%

**Q.** What about the “Conversion (ester/acid)” value (Lipase MY; solvent 25%, 2.7 hr) of the same molecule?
**A.** 35%

**Q.** What about the “% R” value (Lipase MY; solvent 75%, 2.7 hr) of the same molecule?
**A.** 83%

**Q.** And the “Conversion (ester/acid)” value (Lipase MY; solvent 75%, 2.7 hr)?
**A.** 31%

**Q.** What about the “EE of S-acid” value (CSC-2; [3]) of the same molecule?
**A.** 95%

**Q.** What about the “Relative Rate” value (CSC-2; [4]) of the same molecule?
**A.** 185

**Q.** With `CC(C(=O)OCCOCCO)c1cccc(C(=O)c2ccccc2)c1` (centres unmarked) [Diethylene glycol ester, Diethylene Glycol Ester of Ketoprofen] as the molecule, how does the “% ee” value ([1]; Buffer 10 ml, OA 200 ul) read?
**A.** 30%

**Q.** What about the “% Acid” value [1, 5] of the same molecule?
**A.** 32%

**Q.** And the “% Acid” value [1, 6]?
**A.** 56%

**Q.** What about the “% ee” value [1, 7] of the same molecule?
**A.** 13%

**Q.** What about the “% Acid” value ([1]; Isooctane 9 ml, OA 1 ml) of the same molecule?
**A.** 60%

**Q.** What about the “% ee” value [1, 8] of the same molecule?
**A.** 17%

**Q.** With `CC(Cl)(Cl)Cl` [1,1,1-Trichloroethane] as the molecule, how does the “% Acid” value ([1]; KPEG 50 mg, as E212) read?
**A.** 0%

**Q.** What about the “% ee S-acid” value ([1]; KPEG, as E212) of the same molecule?
**A.** 0%

**Q.** And the “% Acid” value [1, 2]?
**A.** 1%

**Q.** And the “% ee S-acid” value ([1]; KPG, as E212)?
**A.** 0%

**Q.** What about the “EE of S-acid” value (CSC-2; [3]) of the same molecule?
**A.** 75%

**Q.** What about the “Relative Rate” value (CSC-2; [4]) of the same molecule?
**A.** 25

**Q.** Which “% Acid” value [1] does the source give for `CCCCCC` [Hexane] here?
**A.** 12% and 16%

**Q.** What about the “% ee S-acid” value [1] of the same molecule?
**A.** 94% and 87%

**Q.** What about the “EE of S-acid” value (CSC-2) of the same molecule?
**A.** 93%

**Q.** And the “Relative Rate” value (CSC-2; pH 5.5, 1560 min)?
**A.** 80

**Q.** Which results are given for `CC(C)c1ccccc1` [cumene]?
**A.** % R (Lipase MY; solvent 25%, 2.7 hr): 100%; Conversion (ester/acid) (Lipase MY; solvent 25%, 2.7 hr): 35%; EE of S-acid (CSC-2; [3]): 86%; Relative Rate (CSC-2; [4]): 91

**Q.** Which results are given for `CC(C)CC(C)(C)C` [Isooctane]?
**A.** % Acid ([1]; KPEG 50 mg, as E212): 48%; % ee S-acid ([1]; KPEG, as E212): 97%; % Acid [1, 2]: 39%; % ee S-acid ([1]; KPG, as E212): 98%; EE of S-acid (CSC-2; [3]): 96%; Relative Rate (CSC-2; [4]): 214

**Q.** With `CC(C(=O)OCCO)c1cccc(C(=O)c2ccccc2)c1` (centres unmarked) [Ethylene Glycol Ester, ketoprofen ethylene glycol] as the molecule, how does the “% ee” value ([1]; Buffer 10 ml, OA 200 ul) read?
**A.** 98%

**Q.** What about the “% Acid” value [1, 5] of the same molecule?
**A.** 21%

**Q.** And the “% Acid” value ([1]; CHCl3 9 ml, OA 1 ml)?
**A.** 0%

**Q.** What about the “% Acid” value [1, 6] of the same molecule?
**A.** 29%

**Q.** And the “% ee” value [1, 7]?
**A.** 95%

**Q.** What about the “% Acid” value ([1]; Isooctane 9 ml, OA 1 ml) of the same molecule?
**A.** 47%

**Q.** And the “% ee” value [1, 8]?
**A.** 98%

**Q.** What about the “% Acid” value ([1]; Toluene 9 ml, OA 1 ml) of the same molecule?
**A.** 0%
